Data on nine molecules can be found in patent US20120128614A1, “SOLVENT, SOLUTION, CLEANING COMPOSITION AND METHODS” (SEGETIS, INC., priority 2009, published 2012).

Structures are written as SMILES.

A short description of data set [1]: Miscibility of alkyl ketal esters with water. The format is physicochemical. The following applies: for miscibility with water: miscibility assessed at 25° C. unless stated otherwise. The text has this: The term “miscible” and its variations (“miscibility”, etc.) are used herein as a synonym for “soluble”, as that term is defined above. A material may be fully or partially miscible in another. As used herein, a material said to be “miscible” in another, without further qualification, is miscible with that other material in all proportions, i.e., mixtures that contain only the two components form clear homogenous solutions in all weight ratios from 99.9:0.1 to 0.1:99.9. A material is said to be “highly miscible” in another material if it is soluble in the other material to the extent of at least 20 parts in 80 parts of the other material, and preferably is soluble in that other material to the extent of at least 50 parts in 50 parts of the other material. A “highly miscible” material may be soluble in the other material to the extent of 99.9 parts to 0.1 part of that other material and all lower proportions. A material is said to be “sparingly miscible” in another (or has “low miscibility” in another material) if is immiscible (as defined below) therein or otherwise not soluble in that other material to the extent of 20 parts in 80 parts of the other material. A sparingly miscible material may be soluble in that other material to the extent of no more than 10 parts in 90 parts of that other material, and may be soluble in that other material to the extent of no more than 5 parts in 95 parts of the other material. A material is said to be “immiscible” in another if it is not soluble by itself in that material to the extent of at least 1 part per 99 parts of the other material. Unless stated otherwise, miscibility is assessed at 25° C.

Data set [2] can be described thus: Bleach and peroxide stability evaluations with Et-LGK (GC/FID). The format is physicochemical. The conditions noted are these: after storing for 96 hours. The procedure:
Examples 2-3 and a control (non-bleach) formulation are prepared by combining the ingredients indicated in Table 1 in a 20 ml borosilicate glass scintillation vial, followed by shaking vigorously to form a clear, colorless solution. All formulations are clear, colorless homogenous solutions after standing for three days at room temperature.
After storing for 96 hours, GC/FID analysis is performed to assess the stability of Examples 2 and 3 and Comparative Sample A. Three analyses are performed with each test sample. […] For Example 1, the Et-LGK concentration is about 9.4%, indicating a slight degradation of the material in the presence of the chlorine bleach.

Data set [3] is described as follows: Miscibility of alkyl ketal esters with organic compounds. Format: physicochemical. The conditions noted are these: methanol, ethanol, tetrahydrofuran, acetone, ethyl acetate, methylene chloride, toluene, cyclohexane, acetic acid, poly(propylene glycol), mineral, castor, canola, corn, sunflower oil. The text has this:
The term “miscible” and its variations (“miscibility”, etc.) are used herein as a synonym for “soluble”, as that term is defined above. A material may be fully or partially miscible in another. As used herein, a material said to be “miscible” in another, without further qualification, is miscible with that other material in all proportions, i.e., mixtures that contain only the two components form clear homogenous solutions in all weight ratios from 99.9:0.1 to 0.1:99.9. A material is said to be “highly miscible” in another material if it is soluble in the other material to the extent of at least 20 parts in 80 parts of the other material, and preferably is soluble in that other material to the extent of at least 50 parts in 50 parts of the other material. A “highly miscible” material may be soluble in the other material to the extent of 99.9 parts to 0.1 part of that other material and all lower proportions. A material is said to be “sparingly miscible” in another (or has “low miscibility” in another material) if is immiscible (as defined below) therein or otherwise not soluble in that other material to the extent of 20 parts in 80 parts of the other material. […] Unless stated otherwise, miscibility is assessed at 25° C.

Data set [4] in a line: Et-LPK solubilization in Et-LGK/water mixtures (visual miscibility). Format: physicochemical. The procedure:
Several three-component mixtures of Et-LGK, water and Et-LPK are prepared by mixing the materials the above materials at room temperature in a 20 ml scintillation vial with shaking. The mixtures prepared are analyzed visually for miscibility. Clear mixture are considered to be “miscible”, and mixtures, which are cloudy or form two or more distinct phases are considered to be “immiscible” on this test.

Data set [5] is described as follows: Bleach stability evaluation with Et-LPK (GC-FID purity). The conditions noted are these: 8 ml Et-LPK stirred overnight with 2 ml 6% sodium hypochlorite in water; organic phase analysed. The format is physicochemical. As for the experimental part: The purity of an Et-LPK sample is measured by GC-FID (Model No. 7890A Gas Chromatograph w/ Flame Ionization Detector; Agilent Technologies, Santa Clara, Calif.). In a 20 ml vial (borosilicate scintillation; VWR International, West Chester, Pa.), 2 ml of a 6% sodium hypochlorite (bleach; Clorox Co., Oakland, Calif.) in water is mixed with 8 ml of Et-LPK to form a mixture. The mixture is shaken vigorously to produce a nearly clear solution. The mixture is further stirred overnight on a magnetic stir plate with a magnetic stir bar. Upon standing, the mixture separates into two phases—an upper organic phase and a bottom aqueous phase. A sample of the organic phase is analyzed by GC-FID to determine the purity of the Et-LPK after mixing.

Data set [6] is described as follows: Castor oil solubilization into water by cosolvent. The following applies: about 25° C.
Method: Mixtures of water and castor oil ChemistryStore.com; Cayce, S.C.) are prepared at 10/90, 25/75, 50/50, 75/25 and 90/10 volume ratios. […] To assess the ability of Et-LGK to solubilize castor oil into water, Et-LGK is added to each of these mixtures with vigorous stirring in a 20 mL scintillation vial at about 25° C. until a clear solution is obtained.
Data set [7] is described as follows: 2,2,4-Trimethyl-1,3-pentanediol (2-methylpropanoate) (Texanol) solubilization into water by cosolvent. The conditions noted are these: about 25° C.
Method: To assess the ability of Et-LGK to solubilize Texanol into water, Et-LGK is added to each of these mixtures with vigorous stirring in a 20 mL scintillation vial at about 25° C. until a clear solution is obtained.
The concentrations of these comparative solvents (in volume %) needed in each case to form a clear solution is reported in Table 6 as Comparative Samples G, H and I, respectively.
The nature of data set [8]: Soya methyl esters solubilization into water by cosolvent. The conditions noted are these: about 25° C.
Method: Mixtures of water and soya methyl esters (Stepan Chemical, Northfield, Ill.) are prepared at 10/90, 25/75, 50/50, 75/25 and 90/10 volume ratios.
Data set [9] can be described thus: Isobutyl isobutyrate (IBIB) solubilization into water by cosolvent. The following applies: about 25° C.
Method: To assess the ability of Et-LGK to solubilize IBIB into water, Et-LGK is added to each of these mixtures with vigorous stirring in a 20 mL scintillation vial at about 25° C. until a clear solution is obtained.

With `COC(=O)CCC1(C)OCC(CO)O1` (centres unmarked) [Me-LGK], the miscibility with water result in [1] is reported as “miscible with water in all proportions”.

Consider `CCOC(=O)CCC1(C)OCC(CO)O1` (centres unmarked) [Et-LGK], for which the “Et-LGK concentration (GC/FID)” value in [2] (control (non-bleach) formulation) is “about 10%”; in data set [2] (formulation with 6% sodium hypochlorite solution (Table 1 'Example 1')), “about 9.4%”; in data set [2] (formulation with hydrogen peroxide (Table 1 'Example 2')), “the same as the control”. In data set [1], the miscibility with water result is given as “miscible in water in all proportions”.

On to `CCOC(=O)CC1(C)OCC(CO)O1` (centres unmarked) [Et-AcAcGK], for which, in [1], the miscibility with water entry is reported as “miscible with water in all proportions”.

`CCOC(=O)CCC1(C)OCCO1` [Et-LEK]: the “miscible in water to the extent of” value in data set [1] was “about 5 parts per 95 parts of water”.

Consider `CCCOC(=O)CCC1(C)OCC(CO)O1` (centres unmarked) [n-propyl-LGK], for which, in data set [1], the “miscible with water to the extent of” value was “about 1 part per 99 parts water”.

For `COC(=O)CC1(C)OCC(CO)O1` (centres unmarked) [Me-AcAcGK], the miscibility with water result in data set [1] is on record as “miscible with water in all proportions”.

As to `CCOC(=O)CCC1(C)OCC(C)O1` (centres unmarked) [Et-LPK], in [3], the “dissolves or is miscible with organic compounds to the extent of” value was “at least 20 parts of the organic compound in 80 parts of ethyl-LPK”. For the same molecule, the “Et-LPK concentration obtained in a miscible mixture with water and Et-LGK” value in [4] (Mixture 18) is listed as approximately 55 wt. %. Besides, in data set [4] (at the 10.9% level, no Et-LGK), the “miscibility of Et-LPK in water” value was “immiscible”. Moreover, in [5], the “change in purity of Et-LPK (GC-FID) versus initial purity” value is “little to no change in the purity”. In [1], the “miscible in water to the extent of” value is “about 2.5 parts in 97.5 parts of water”.

On to `CCCCOC(=O)CCC1(C)OCC(CO)O1` (centres unmarked) [n-butyl-LGK], for which, in data set [1], the “miscible with water to the extent of” value was “about 1 part per 99 parts water”.

In the case of `COC(C)COC(C)CO` (centres unmarked) [DPGMME, dipropylene glycol monomethyl ether], the “Required amount of cosolvent to obtain clear solution” value (shortened to “Required amount of cosolvent”) was found to be 55.9 vol.-% in data set [6] (10/90 Water/castor oil ratio by volume); 65.4 vol.-% in [6] (25/75 Water/castor oil ratio by volume); 73.5 vol.-% in [6] (50/50 Water/castor oil ratio by volume); 78.9 vol.-% in data set [6] (75/25 Water/castor oil ratio by volume); 80.6 vol.-% in [6] (90/10 Water/castor oil ratio by volume); 44.4 vol.-% in data set [7] (10/90 Water/Texanol ratio by volume). The “Required amount of cosolvent” value in [7] (25/75 Water/Texanol ratio by volume) was 50.9 vol.-%; in [7] (50/50 Water/Texanol ratio by volume), 55.2 vol.-%; in [7] (75/25 Water/Texanol ratio by volume), 54.1 vol.-%; in data set [7] (90/10 Water/Texanol ratio by volume), 51.6 vol.-%; in [8] (10/90 Water/soya methyl ester ratio by volume), 48.3 vol.-%; in data set [8] (25/75 Water/soya methyl ester ratio by volume), 62.6 vol.-%. Besides, the “Required amount of cosolvent” value was 73.6 vol.-% in data set [8] (50/50 Water/soya methyl ester ratio by volume); 78.3 vol.-% in data set [8] (75/25 Water/soya methyl ester ratio by volume); 78.3 vol.-% in data set [8] (90/10 Water/soya methyl ester ratio by volume); 54.5 vol. % in data set [9] (10/90 Water/IBIB ratio by volume); 53.3 vol. % in data set [9] (25/75 Water/IBIB ratio by volume); 58.9 vol. % in [9] (50/50 Water/IBIB ratio by volume). For the same molecule, the “Required amount of cosolvent” value in data set [9] (75/25 Water/IBIB ratio by volume) came out at 60.0 vol. %; in data set [9] (90/10 Water/IBIB ratio by volume), 62.5 vol. %.
